These are literature values, as cited in patent US6423697B1, “Intraoral topical anti-inflammatory treatment for relief of migraine, tension-type headache, post-traumatic headache, facial pain, and cervical-muscle spasm” (priority 1999, dated 2002).

The conditions of data set [1]: oral medication.

In the case of “2-(3benzoxyphenyl)-propionic acid [Ketoprofen]”, the “time to peak plasma levels” value (oral administration) was 0.5 to 2 h.
As to `CC(=O)Oc1ccccc1C(=O)O` [Aspirin, salicylic acetate], for the setting “in vivo”, the plasma half-life is 4.7 to 9 h. Further, for the setting “oral administration”, the “time peak plasma levels are maintained” value is 4 to 6 h and the “time to peak plasma levels” value is 1 to 2 h. Also, the effectiveness for headache entry in data set [1] is on record as “mildly effective”.
As for `CC(C)Cc1ccc(C(C)C(=O)O)cc1` (centres unmarked) [Ibuprofen, 2-(p-Isobutylphenyl) propionic acid], the “time to peak plasma levels” value (oral administration) is 1 to 2 h. For the same compound, in data set [1], the effectiveness for headache result was “mildly effective”.
As for `COc1ccc2cc([C@H](C)C(=O)O)ccc2c1` [Naproxen, 6-methoxy methyl-2-naphtalene acetic acid], in data set [1], the effectiveness for headache entry is listed as “mildly effective”.
